From ChEMBL document CHEMBL4033632, “Design, synthesis and biological activity of novel donepezil derivatives bearing N-benzyl pyridinium moiety as potent and dual binding site acetylcholinesterase inhibitors” (Eur J Med Chem, 2017)
Calls of active or inactive are those of the source. No cut-off for these calls is given here.

How the values were obtained:
physchem = conditions: PAMPA
Description: Permeability of the compound at 200 uL after 16 hrs by PAMPA-BBB assay

[1] = molecular target: Amyloid-beta precursor protein (Homo sapiens) (UniProt P05067); assay: Inhibition of amyloid beta (1 to 42) (unknown origin) self-induced aggregation assessed as reduction in amyloid beta fibrils by transmission electron microscopic analysis
Amyloid-beta precursor protein (Homo sapiens), sequence (P05067 whole entry): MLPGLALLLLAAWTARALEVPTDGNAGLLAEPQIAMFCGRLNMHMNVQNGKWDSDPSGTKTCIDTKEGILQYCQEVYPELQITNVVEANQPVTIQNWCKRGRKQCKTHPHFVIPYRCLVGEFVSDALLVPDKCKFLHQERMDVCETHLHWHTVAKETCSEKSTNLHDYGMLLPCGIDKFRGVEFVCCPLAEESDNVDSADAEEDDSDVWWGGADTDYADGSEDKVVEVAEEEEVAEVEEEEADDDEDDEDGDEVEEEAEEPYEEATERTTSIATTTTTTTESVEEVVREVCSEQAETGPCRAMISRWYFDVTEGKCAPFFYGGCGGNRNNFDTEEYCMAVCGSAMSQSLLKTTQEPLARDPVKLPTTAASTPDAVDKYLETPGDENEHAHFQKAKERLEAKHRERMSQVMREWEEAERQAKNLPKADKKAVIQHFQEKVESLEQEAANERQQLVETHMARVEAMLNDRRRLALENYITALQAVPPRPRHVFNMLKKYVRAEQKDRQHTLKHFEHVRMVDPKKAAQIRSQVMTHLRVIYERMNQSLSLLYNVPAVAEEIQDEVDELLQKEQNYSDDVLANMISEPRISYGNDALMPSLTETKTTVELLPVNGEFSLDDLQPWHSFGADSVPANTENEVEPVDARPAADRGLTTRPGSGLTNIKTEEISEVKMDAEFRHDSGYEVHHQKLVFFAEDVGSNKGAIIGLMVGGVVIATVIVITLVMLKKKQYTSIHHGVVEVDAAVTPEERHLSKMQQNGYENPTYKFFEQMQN

Mus musculus [2] = assay: Toxicity in Kunming mouse assessed as effect on water consumption up to 2000 mg/kg, po measured up to 14 days post dose; assay type: organism-based; conditions: in vivo, 336 h
[3] = Antioxidant activity assessed as trolox equivalents of DPPH radical scavenging activity at 25 uM after 30 mins by UV-vis spectrophotometry; assay type: functional
PC-12 [4] = assay: Neuroprotective activity against H2O2-induced oxidative damage in rat PC12 cells assessed as increase in cell viability at 6.25 uM after 24 hrs by MTT assay; assay type: functional, cell-based
PC-12 [5] = assay: Neuroprotective activity against H2O2-induced oxidative damage in rat PC12 cells assessed as cell viability at 12.5 uM after 24 hrs by MTT assay relative to control; assay type: functional; conditions: PC-12, 24 h, read-out: Activity
Mus musculus [6] = assay: Toxicity in Kunming mouse assessed as effect on food consumption up to 2000 mg/kg, po measured up to 14 days post dose; assay type: organism-based; conditions: in vivo, 336 h
PC-12 [7] = assay: Neuroprotective activity against amyloid beta (1 to 42 residues) induced cell death in rat PC12 cells assessed as cell viability at 6.25 uM preincubated for 2 hrs followed by amyloid beta (1 to 42 residues) addition measured after 24 hrs by MTT assay (reference value: 50.5%); assay type: functional; conditions: read-out: Activity
[8] = molecular target: Amyloid-beta precursor protein (Homo sapiens) (UniProt P05067); assay: Inhibition of HFIP-pretreated amyloid beta (1 to 42) (unknown origin) self-induced aggregation at 20 uM incubated for 46 to 48 hrs by thioflavin-T fluorescence assay relative to control
Acetylcholinesterase [9] = molecular target: Acetylcholinesterase (Homo sapiens, UniProt P22303); assay: Inhibition of human erythrocyte AChE using acetylthiocholine iodide as substrate pretreated for 6 mins followed by substrate addition measured up to 180 sec by Ellman's method
Acetylcholinesterase (Homo sapiens, UniProt P22303), sequence (P22303 whole entry): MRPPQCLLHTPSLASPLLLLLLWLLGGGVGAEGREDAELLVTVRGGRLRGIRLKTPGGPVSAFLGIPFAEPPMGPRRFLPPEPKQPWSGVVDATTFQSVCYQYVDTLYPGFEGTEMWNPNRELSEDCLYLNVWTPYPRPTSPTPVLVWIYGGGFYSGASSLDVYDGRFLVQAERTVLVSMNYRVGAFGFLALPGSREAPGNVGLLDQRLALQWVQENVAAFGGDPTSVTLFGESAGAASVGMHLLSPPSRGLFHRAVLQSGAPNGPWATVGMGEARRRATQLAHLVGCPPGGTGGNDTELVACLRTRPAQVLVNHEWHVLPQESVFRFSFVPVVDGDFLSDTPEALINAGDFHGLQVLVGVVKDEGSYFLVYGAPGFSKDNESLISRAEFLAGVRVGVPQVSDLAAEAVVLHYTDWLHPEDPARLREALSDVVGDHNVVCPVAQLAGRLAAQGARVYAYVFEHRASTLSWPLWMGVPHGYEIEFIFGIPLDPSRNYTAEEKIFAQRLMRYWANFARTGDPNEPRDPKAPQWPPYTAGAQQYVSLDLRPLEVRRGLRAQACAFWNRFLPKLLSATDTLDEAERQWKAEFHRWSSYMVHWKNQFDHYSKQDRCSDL

Mus musculus [10] = assay: Toxicity in Kunming mouse assessed as body weight loss up to 2000 mg/kg, po measured up to 14 days post dose; assay type: organism-based; conditions: in vivo, 336 h
[11] = molecular target: Acetylcholinesterase (Electrophorus electricus) (UniProt O42275); assay: Mixed-type inhibition of electric eel AChE at 1.25 to 5 nM using varying levels of acetylthiocholine iodide substrate by Lineweaver-Burk plot analysis
Acetylcholinesterase (Electrophorus electricus), sequence (O42275 24-633 limits assumed): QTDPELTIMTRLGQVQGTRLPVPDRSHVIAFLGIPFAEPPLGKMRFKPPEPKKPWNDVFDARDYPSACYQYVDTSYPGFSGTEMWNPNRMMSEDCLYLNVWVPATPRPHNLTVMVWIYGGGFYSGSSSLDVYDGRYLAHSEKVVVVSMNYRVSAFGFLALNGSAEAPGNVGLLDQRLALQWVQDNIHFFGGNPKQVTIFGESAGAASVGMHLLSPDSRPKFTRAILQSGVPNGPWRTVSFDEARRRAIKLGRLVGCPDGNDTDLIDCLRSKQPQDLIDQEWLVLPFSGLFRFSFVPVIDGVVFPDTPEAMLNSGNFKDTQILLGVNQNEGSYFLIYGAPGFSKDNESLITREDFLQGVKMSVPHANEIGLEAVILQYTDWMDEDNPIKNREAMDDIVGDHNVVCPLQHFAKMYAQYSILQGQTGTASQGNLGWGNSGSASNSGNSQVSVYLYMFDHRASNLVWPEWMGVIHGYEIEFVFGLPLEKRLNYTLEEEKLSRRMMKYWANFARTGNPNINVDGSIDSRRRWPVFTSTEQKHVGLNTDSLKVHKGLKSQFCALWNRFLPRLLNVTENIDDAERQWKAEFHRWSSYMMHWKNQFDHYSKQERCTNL

Mus musculus [12] = assay: Toxicity in Kunming mouse assessed as mortality up to 2000 mg/kg, po measured up to 14 days post dose; assay type: organism-based; conditions: in vivo, 336 h
PC-12 [13] = assay: Neuroprotective activity against amyloid beta (1 to 42 residues) induced cell death in rat PC12 cells assessed as cell viability at 1.56 uM preincubated for 2 hrs followed by amyloid beta (1 to 42 residues) addition measured after 24 hrs by MTT assay (reference value: 50.5%); assay type: functional; conditions: read-out: Activity
PC-12 [14] = assay: Neuroprotective activity against amyloid beta (1 to 42 residues) induced cell death in rat PC12 cells assessed as cell viability at 12.5 uM preincubated for 2 hrs followed by amyloid beta (1 to 42 residues) addition measured after 24 hrs by MTT assay (reference value: 50.5%); assay type: functional; conditions: read-out: Activity
PC-12 [15] = assay: Neuroprotective activity against amyloid beta (1 to 42 residues) induced cell death in rat PC12 cells assessed as cell viability at 3.12 uM preincubated for 2 hrs followed by amyloid beta (1 to 42 residues) addition measured after 24 hrs by MTT assay (reference value: 50.5%); assay type: functional; conditions: read-out: Activity
PC-12 [16] = assay: Cytotoxicity against rat PC12 cells assessed as effect on cell viability at 6 to 100 uM after 24 hrs by MTT assay; assay type: cell-based; conditions: pc-12, 24 h
[17] = Selectivity index, ratio of IC50 for equine serum BuChE to IC50 for Electric eel AChE
Acetylcholinesterase [18] = molecular target: Acetylcholinesterase (Electrophorus electricus, UniProt O42275); assay: Inhibition of electric eel AChE using acetylthiocholine iodide as substrate pretreated for 6 mins followed by substrate addition measured up to 180 sec by Ellman's method
Acetylcholinesterase (Electrophorus electricus, UniProt O42275), sequence (O42275 whole entry): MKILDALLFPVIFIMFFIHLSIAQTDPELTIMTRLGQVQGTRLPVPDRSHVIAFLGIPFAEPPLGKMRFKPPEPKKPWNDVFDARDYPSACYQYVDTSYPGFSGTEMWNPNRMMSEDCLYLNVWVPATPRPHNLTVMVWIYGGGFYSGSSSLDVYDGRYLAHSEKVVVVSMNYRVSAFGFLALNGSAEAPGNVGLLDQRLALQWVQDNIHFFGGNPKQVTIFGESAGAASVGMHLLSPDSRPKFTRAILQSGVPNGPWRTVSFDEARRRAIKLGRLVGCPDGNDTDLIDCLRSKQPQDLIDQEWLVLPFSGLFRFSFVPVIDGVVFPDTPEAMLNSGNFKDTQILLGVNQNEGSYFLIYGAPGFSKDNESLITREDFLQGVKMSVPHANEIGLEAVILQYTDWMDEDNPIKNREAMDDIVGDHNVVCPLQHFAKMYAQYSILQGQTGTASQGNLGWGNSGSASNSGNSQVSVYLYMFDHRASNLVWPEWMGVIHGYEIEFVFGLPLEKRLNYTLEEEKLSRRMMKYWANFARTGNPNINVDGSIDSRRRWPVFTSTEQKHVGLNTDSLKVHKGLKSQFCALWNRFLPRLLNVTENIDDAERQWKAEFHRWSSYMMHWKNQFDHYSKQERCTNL

Cholinesterase = Cholinesterase (Equus caballus, UniProt P81908); assay: Inhibition of equine serum BuChE using s-butyrylthiocholine iodide as substrate preincubated for 6 mins followed by substrate addition measured up to 180 sec by Ellman's method
Cholinesterase, sequence (P81908 whole entry): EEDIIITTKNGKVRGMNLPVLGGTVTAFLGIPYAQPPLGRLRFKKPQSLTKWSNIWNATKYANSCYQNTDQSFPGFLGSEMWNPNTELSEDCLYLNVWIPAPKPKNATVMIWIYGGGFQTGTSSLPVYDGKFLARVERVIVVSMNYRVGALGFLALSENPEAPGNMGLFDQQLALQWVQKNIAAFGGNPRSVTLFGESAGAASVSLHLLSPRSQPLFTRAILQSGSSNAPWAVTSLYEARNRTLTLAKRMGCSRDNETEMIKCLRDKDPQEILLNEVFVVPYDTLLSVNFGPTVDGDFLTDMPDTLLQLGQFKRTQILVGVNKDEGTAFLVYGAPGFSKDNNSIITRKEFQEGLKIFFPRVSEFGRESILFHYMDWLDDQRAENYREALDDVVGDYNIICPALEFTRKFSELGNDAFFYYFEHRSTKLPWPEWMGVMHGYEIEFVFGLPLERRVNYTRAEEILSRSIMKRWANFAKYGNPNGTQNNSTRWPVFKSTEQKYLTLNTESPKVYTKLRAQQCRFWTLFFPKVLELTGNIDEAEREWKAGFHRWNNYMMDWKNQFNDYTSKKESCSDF

For `COc1cc2c(cc1OC)C(=O)/C(=C/c1cc[n+](Cc3ccccc3F)cc1)C2.[Br-]`, the Papp at 16 h (physchem) was 4.97 ×10⁻⁶ cm/s, the inhibition [1] was “Active” and the Activity (Mus musculus [2]) was “Non-Toxic”. For the same compound, the Activity [3] was 0.54 equiv, the Activity (PC-12 [4]) was “Active” and the viability at 12.5 µM (PC-12 [5]) was 73.2%. For the same compound, the Activity (Mus musculus [6]) was “Non-Toxic”, the viability at 6.25 µM (PC-12 [7]) was 72.3% and the inhibition [8] was 53.7%. For the same compound, the IC50 (Acetylcholinesterase [9]) was 0.8 nM, the Activity (Mus musculus [10]) was “Non-Toxic” and the inhibition [11] was “Active”. The Activity (Mus musculus [12]) was “Non-Toxic”, the viability at 1.56 µM (PC-12 [13]) was 53.7% and the viability at 12.5 µM (PC-12 [14]) was 76.3%. The viability at 3.12 µM (PC-12 [15]) was 66.5% and the Activity (PC-12 [16]) was “Non-Toxic”.
Work on `COc1cc2c(cc1OC)C(=O)C(CC1CCN(Cc3ccccc3)CC1)C2` (stereo not given) yielded an Activity [3] of 0.63 equiv.
For `COc1cc2c(cc1OC)C(=O)/C(=C/c1cc[n+](Cc3ccc(Br)cc3)cc1)C2`, the Ratio IC50 [17] was > 129, the Activity [3] was 0.38 equiv and the IC50 (Acetylcholinesterase [18]) was 77.3 nM. It also gave an inhibition [8] of 50.2% and an IC50 (Acetylcholinesterase [9]) of 69.7 nM.
In the case of `COc1cc2c(cc1OC)C(=O)/C(=C/c1cc[n+](Cc3cccc(F)c3)cc1)C2`, the Ratio IC50 [17] is reported as > 2940, the Activity [3] is reported as 0.47 equiv and the IC50 (Acetylcholinesterase [18]) is reported as 3.4 nM. For the same compound, the inhibition [8] was 43.5% and the IC50 (Acetylcholinesterase [9]) was 2.9 nM.
With `COc1cc2c(cc1OC)C(=O)/C(=C/c1cc[n+](Cc3ccccc3Br)cc1)C2` the Ratio IC50 [17] was > 3450, the Activity [3] was 0.37 equiv and the IC50 (Acetylcholinesterase [18]) was 2.9 nM. It also gave an inhibition [8] of 56.7% and an IC50 (Acetylcholinesterase [9]) of 3.8 nM.
With `COc1cc2c(cc1OC)C(=O)/C(=C/c1cc[n+](Cc3cccc(C)c3)cc1)C2` the Ratio IC50 [17] was > 2380, the Activity [3] was 0.47 equiv and the IC50 (Acetylcholinesterase [18]) was 4.2 nM. For the same compound, the inhibition [8] was 42.6% and the IC50 (Acetylcholinesterase [9]) was 4 nM.
In the case of `COc1cc2c(cc1OC)C(=O)/C(=C/c1cc[n+](Cc3ccccc3)cc1)C2`, the Ratio IC50 [17] is reported as > 3450, the Activity [3] is reported as 0.51 equiv and the IC50 (Acetylcholinesterase [18]) is reported as 2.9 nM. It also gave an inhibition [8] of 45.6% and an IC50 (Acetylcholinesterase [9]) of 3.4 nM.
With `COc1cc2c(cc1OC)C(=O)/C(=C/c1cc[n+](Cc3ccc([N+](=O)[O-])cc3)cc1)C2` the Ratio IC50 [17] was > 130, the Activity [3] was 0.49 equiv and the IC50 (Acetylcholinesterase [18]) was 74.6 nM. The inhibition [8] was 47.2% and the IC50 (Acetylcholinesterase [9]) was 59.5 nM.
In the case of `COc1cc2c(cc1OC)C(=O)/C(=C/c1cc[n+](Cc3cccc(Br)c3)cc1)C2`, the Ratio IC50 [17] is reported as > 2270, the Activity [3] is reported as 0.32 equiv and the IC50 (Acetylcholinesterase [18]) is reported as 4.4 nM. It also gave an inhibition [8] of 53.4% and an IC50 (Acetylcholinesterase [9]) of 5.2 nM.
In the case of `C[C@]12CC[C@@H]3c4ccc(O)cc4CC[C@H]3[C@@H]1CC[C@@H]2O` [ESTRADIOL], the Papp at 16 h (physchem) is reported as 11.3 ×10⁻⁶ cm/s.
For `COc1cc2c(cc1OC)C(=O)/C(=C/c1cc[n+](Cc3ccc(C)cc3)cc1)C2`, the Ratio IC50 [17] was > 391, the Activity [3] was 0.39 equiv and the IC50 (Acetylcholinesterase [18]) was 25.6 nM. It also gave an inhibition [8] of 49.9% and an IC50 (Acetylcholinesterase [9]) of 18.6 nM.
In the case of `COc1cc2c(cc1OC)C(=O)/C(=C/c1cc[n+](Cc3ccc(F)cc3)cc1)C2`, the Ratio IC50 [17] is reported as 1170, the Activity [3] is reported as 0.51 equiv and the IC50 (Cholinesterase) is reported as 5400 nM. For the same compound, the IC50 (Acetylcholinesterase [18]) was 4.6 nM, the inhibition [8] was 47.6% and the IC50 (Acetylcholinesterase [9]) was 4.1 nM.
In the case of `COc1cc2c(cc1OC)C(=O)/C(=C/c1cc[n+](Cc3ccccc3C)cc1)C2`, the Ratio IC50 [17] is reported as > 1960, the Activity [3] is reported as 0.41 equiv and the IC50 (Acetylcholinesterase [18]) is reported as 5.1 nM. It also gave an inhibition [8] of 38.7% and an IC50 (Acetylcholinesterase [9]) of 5.8 nM.
For `COc1cc2c(cc1OC)C(=O)/C(=C/c1cc[n+](Cc3cccc([N+](=O)[O-])c3)cc1)C2`, the Ratio IC50 [17] was > 1690, the Activity [3] was 0.33 equiv and the IC50 (Acetylcholinesterase [18]) was 5.9 nM. It also gave an inhibition [8] of 50.8% and an IC50 (Acetylcholinesterase [9]) of 3.6 nM.
